{
  "source": "patent US7462345B2",
  "about": "“Radionuclide labeling of vitamin B12 and coenzymes thereof” (Mayo Foundation for Medical Education and Research, priority 1995, dated 2008)",
  "key": {"[1]": {"assay": "Biodistribution in mice at 24 hours, gamma well counting", "format": "in vivo, Balb-C mice"}, "transplanted sarcoma": {"system": "transplanted sarcoma", "assay": "Tumor imaging, mice with transplanted sarcoma, gamma well counting", "format": "in vivo", "design": "Fat activity, gamma well counting / Muscle activity, gamma well counting: unit not given here", "source_text": "All images for the in vivo studies were obtained on a GE 500 maxicamera using a LEAP collimator with a 20% window about the 140 keV energy peak of technetium, and a medium energy collimator with a 20% window about the 174 keV and 247 keV energy peaks of Indium. A 256×256 matrix with a dedicated pinnacle computer system was used to collect and analyze the data."}, "[2]": {"assay": "Gastrointestinal absorption after oral administration, modified Schillings test", "format": "in vivo, mice", "design": "Kidney activity, gamma well counting / Liver activity, gamma well counting / Pancreas activity, gamma well counting / Heart activity, gamma well counting / Spleen activity, gamma well counting: unit not given here", "method": "B. Gastrointestinal Absorption: Methylcobalamin-b-(4-aminobutyl)-DTPA and DTPA alone were labeled as described above, with the exception that the 3 mCi Indium/300 μg/100 μl normal saline solutions were not diluted. […] The mice were sacrificed at 24 hrs, dissected, and studied as described above.\nA modified Schillings test was performed on two mice. Specifically, each mouse received via subcutaneous and intraperitoneal administration, a 1000 μg loading dose of non-labeled methylcobalamin-b-(4-aminobutyl)amide-DTPA analogue. At 24 hrs, the mice were fed 2-3 drops of Indium-labeled methylcobalamin-b-(4-aminobutyl)amide-DTPA-complex. Urine and feces were collected from the three groups of mice after oral administration. The mice were sacrificed at 24 hours after ingestion of tracer and images and biodistribution data were obtained at that time."}, "[3]": {"conditions": "500 μCi intraperitoneal, 24 hours, mice 1-6"}, "[4]": {"conditions": "500 μCi subcutaneously, mice 7-12"}, "[5]": {"conditions": "500 μCi intraperitoneal, 24 hours, tumor mice 19-24"}, "[6]": {"conditions": "approximately 100 μCi tailvein injection, tumor mice 25-30"}, "[7]": {"conditions": "approximately 30 μCi orally, 24 hrs, mice 13-18"}, "[8]": {"conditions": "approximately 30 μCi orally, 24 hrs, mice 13-18, BKG = background"}},
  "note": "“And” between values parts separate entries of the source, which are not always exact repeats. Equal values may be shown once.",
  "data": [
    {"smiles": "O=C([O-])CN(CCN(CC(=O)[O-])CC(=O)[O-])CCN(CC(=O)[O-])CC(=O)[O-].[111In+3].[H+].[H+]", "note": "[DTPA-^111In]", "values": [
      {"measurement": "Fat activity, gamma well counting", "setting": "[1]; [3]", "value": "12.6 and 19.5 and 18.8"},
      {"measurement": "Heart activity, gamma well counting", "setting": "[1]; [3]", "value": "10.3 and 6.9 and 12.5"},
      {"measurement": "Liver activity, gamma well counting", "setting": "[1]; [3]", "value": "56.9 and 41.5 and 66.1"},
      {"measurement": "Lung activity, gamma well counting", "setting": "[1]; [3]", "value": "6.2 and 6.0 and 10.5"},
      {"measurement": "Muscle activity, gamma well counting", "setting": "[1]; [3]", "value": "5.4 and 5.6 and 5.0"},
      {"measurement": "Pancreas activity, gamma well counting", "setting": "[1]; [3]", "value": "13.4 and 13.0 and 14.1"},
      {"measurement": "Heart activity, gamma well counting", "setting": "[1]; [4]", "value": "5.6 and 5.0 and 4.8"},
      {"measurement": "Kidney activity, gamma well counting", "setting": "[1]; [4]", "value": "119.4 and 117.3 and 110.1"},
      {"measurement": "Liver activity, gamma well counting", "setting": "[1]; [4]", "value": "24.0 and 25.5 and 23.2"},
      {"measurement": "Lung activity, gamma well counting", "setting": "[1]; [4]", "value": "5.4 and 5.3 and 5.0"},
      {"measurement": "Pancreas activity, gamma well counting", "setting": "[1]; [4]", "value": "6.0 and 6.7 and 5.9"},
      {"measurement": "Spleen activity, gamma well counting", "setting": "[1]; [4]", "value": "19.5 and 19.0 and 18.1"},
      {"measurement": "activity per organ or tissue sample, times less when compared to the methyl and adenosylcobalamin analogs", "setting": "[1]; mouse, in vivo", "value": "5-12 times"},
      {"measurement": "Fat activity, gamma well counting", "setting": "transplanted sarcoma; [5]", "value": "13.7 and 17.9 and 19.2"},
      {"measurement": "Heart activity, gamma well counting", "setting": "transplanted sarcoma; [5]", "value": "5.0 and 8.0 and 9.7"},
      {"measurement": "Kidney activity, gamma well counting", "setting": "transplanted sarcoma; [5]", "value": "116.5 and 180.7 and 231.2"},
      {"measurement": "Muscle activity, gamma well counting", "setting": "transplanted sarcoma; [5]", "value": "7.2 and 6.4 and 6.8"},
      {"measurement": "Pancreas activity, gamma well counting", "setting": "transplanted sarcoma; [5]", "value": "7.1 and 11.3 and 13.9"},
      {"measurement": "Tumor activity, gamma well counting", "setting": "transplanted sarcoma; [5]", "value": "52.8 and 69.3 and 73.1"},
      {"measurement": "Fat activity, gamma well counting", "setting": "transplanted sarcoma; [6]", "value": "0.93 and 0.75 and 0.79"},
      {"measurement": "Heart activity, gamma well counting", "setting": "transplanted sarcoma; [6]", "value": "0.94 and 0.61 and 0.85"},
      {"measurement": "Kidney activity, gamma well counting", "setting": "transplanted sarcoma; [6]", "value": "14.0 and 9.9 and 10.2"},
      {"measurement": "Liver activity, gamma well counting", "setting": "transplanted sarcoma; [6]", "value": "1.6 and 1.3 and 1.4"},
      {"measurement": "Lung activity, gamma well counting", "setting": "transplanted sarcoma; [6]", "value": "1.7 and 0.87 and 0.93"},
      {"measurement": "Spleen activity, gamma well counting", "setting": "transplanted sarcoma; [6]", "value": "1.9 and 1.4 and 1.6"},
      {"measurement": "Tumor activity, gamma well counting", "setting": "transplanted sarcoma; [6]", "value": "5.0 and 2.8 and 3.4"},
      {"measurement": "concentration within the transplanted tumors, times less than that of adenosylcobalamin-DTPA-^111In", "setting": "transplanted sarcoma; mouse, in vivo", "value": "10-20 times"},
      {"measurement": "Kidney activity, gamma well counting", "setting": "[2]; [7]", "value": "0.64 and 0.54 and 0.59"},
      {"measurement": "Liver activity, gamma well counting", "setting": "[2]; [7]", "value": "0.28 and 0.21 and 0.30"},
      {"measurement": "Pancreas activity, gamma well counting", "setting": "[2]; [7]", "value": "0.93 and 0.96 and 0.61"},
      {"measurement": "Spleen activity, gamma well counting", "setting": "[2]; [7]", "value": "0.62 and 0.67 and 0.48"},
      {"measurement": "Fat activity, gamma well counting", "setting": "[2]; [8]", "value": "<BKG"},
      {"measurement": "Heart activity, gamma well counting", "setting": "[2]; [8]", "value": "<BKG"},
      {"measurement": "Lung activity, gamma well counting", "setting": "[2]; [8]", "value": "<BKG"},
      {"measurement": "Muscle activity, gamma well counting", "setting": "[2]; [8]", "value": "<BKG"},
      {"measurement": "activity in the heart, lungs, muscle, or fat tissue samples", "setting": "[2]; oral", "value": "No activity was detected"},
      {"measurement": "radioactivity in urine and stool", "setting": "[2]; oral", "value": "detected in urine and stool by two hours"},
      {"measurement": "absorption from the gastrointestinal tract", "setting": "[2]; oral administration, mice", "value": "also absorbed from the gastrointestinal tract, but to a lesser degree"}
    ]},
    {"smiles": "CC1=C2N=C(C=C3N=C(C(C)=C4[N-]C(C(CC(N)=O)C4(C)CCC(=O)NCC(C)OP(=O)([O-])OC4C(CO)OC(n5cnc6cc(C)c(C)cc65)C4O)C4(C)N=C1C(CCC(=O)NCCCCNC(=O)CN(CCN(CCN(CC(=O)[O-])CC(=O)[O-])CC(=O)[O-])CC(=O)[O-])C4(C)CC(N)=O)C(CCC(N)=O)C3(C)C)C(CCC(N)=O)C2(C)CC(N)=O.[111In+3].[CH2-]C1OC(n2cnc3c(N)ncnc32)C(O)C1O.[Co+3]", "note": "(stereo not drawn) [adenosylcobalamin-b-(4-aminobutyl)-amide-DTPA-^111In]", "values": [
      {"measurement": "Fat activity, gamma well counting", "setting": "[1]; [3]", "value": "101.4 and 147.3 and 102.8"},
      {"measurement": "Heart activity, gamma well counting", "setting": "[1]; [3]", "value": "134.7 and 189.4 and 171.2"},
      {"measurement": "Kidney activity, gamma well counting", "setting": "[1]; [3]", "value": "3717.5 and 3299.5 and 3462.7"},
      {"measurement": "Liver activity, gamma well counting", "setting": "[1]; [3]", "value": "943.3 and 823.4 and 768.6"},
      {"measurement": "Lung activity, gamma well counting", "setting": "[1]; [3]", "value": "130.9 and 180.1 and 113.1"},
      {"measurement": "Pancreas activity, gamma well counting", "setting": "[1]; [3]", "value": "304.2 and 319.9 and 310.3"},
      {"measurement": "Spleen activity, gamma well counting", "setting": "[1]; [3]", "value": "433.1 and 405.3 and 366.8"},
      {"measurement": "Heart activity, gamma well counting", "setting": "[1]; [4]", "value": "35.0 and 29.8 and 31.3"},
      {"measurement": "Kidney activity, gamma well counting", "setting": "[1]; [4]", "value": "621.4 and 700.5 and 601.7"},
      {"measurement": "Liver activity, gamma well counting", "setting": "[1]; [4]", "value": "126.4 and 111.7 and 115.8"},
      {"measurement": "Lung activity, gamma well counting", "setting": "[1]; [4]", "value": "38.4 and 51.2 and 40.6"},
      {"measurement": "Pancreas activity, gamma well counting", "setting": "[1]; [4]", "value": "40.0 and 39.3 and 41.2"},
      {"measurement": "Heart activity, gamma well counting", "setting": "transplanted sarcoma; [5]", "value": "165.0 and 134.8 and 157.8"},
      {"measurement": "Kidney activity, gamma well counting", "setting": "transplanted sarcoma; [5]", "value": "3886.9 and 3115.6 and 3592.8"},
      {"measurement": "Liver activity, gamma well counting", "setting": "transplanted sarcoma; [5]", "value": "691.0 and 464.8 and 675.0"},
      {"measurement": "Lung activity, gamma well counting", "setting": "transplanted sarcoma; [5]", "value": "318.8 and 230.0 and 335.2"},
      {"measurement": "Pancreas activity, gamma well counting", "setting": "transplanted sarcoma; [5]", "value": "445.0 and 242.7 and 439.0"},
      {"measurement": "Spleen activity, gamma well counting", "setting": "transplanted sarcoma; [5]", "value": "576.3 and 309.5 and 478.3"},
      {"measurement": "Tumor activity, gamma well counting", "setting": "transplanted sarcoma; [5]", "value": "954.7 and 1426.0 and 1183.1"},
      {"measurement": "tumor activity relative to heart, lungs, fat, and muscle", "setting": "transplanted sarcoma; IP and IV routes, 24 hours", "value": "4-12 times"},
      {"measurement": "tumor activity relative to liver, spleen, and pancreas", "setting": "transplanted sarcoma; IP and IV routes, 24 hours", "value": "two to four times greater activity"},
      {"measurement": "uptake within the transplanted sarcoma", "setting": "transplanted sarcoma; at 24 hours, visually and by gamma well counting", "value": "significant amount"}
    ]},
    {"smiles": "CC1=C2N=C(C=C3N=C(C(C)=C4[N-]C(C(CC(N)=O)C4(C)CCC(=O)NCC(C)OP(=O)([O-])OC4C(CO)OC(n5cnc6cc(C)c(C)cc65)C4O)C4(C)N=C1C(CCC(=O)NCCCCNC(=O)CN(CCN(CCN(CC(=O)[O-])CC(=O)[O-])CC(=O)[O-])CC(=O)[O-])C4(C)CC(N)=O)C(CCC(N)=O)C3(C)C)C(CCC(N)=O)C2(C)CC(N)=O.[111In+3].[CH3-].[Co+3]", "note": "(stereo not drawn) [methylcobalamin-b-(4-aminobutyl)-amide-DTPA-^111In]", "values": [
      {"measurement": "Heart activity, gamma well counting", "setting": "transplanted sarcoma; [6]", "value": "21.7 and 11.4 and 16.9"},
      {"measurement": "Lung activity, gamma well counting", "setting": "transplanted sarcoma; [6]", "value": "34.4 and 19.9 and 21.3"},
      {"measurement": "Muscle activity, gamma well counting", "setting": "transplanted sarcoma; [6]", "value": "23.5 and 15.5 and 14.5"},
      {"measurement": "Pancreas activity, gamma well counting", "setting": "transplanted sarcoma; [6]", "value": "38.4 and 21.3 and 30.3"},
      {"measurement": "Kidney activity, gamma well counting", "setting": "[2]; [7]", "value": "4.3 and 4.1 and 3.1"},
      {"measurement": "Liver activity, gamma well counting", "setting": "[2]; [7]", "value": "0.82 and 0.80 and 0.73"},
      {"measurement": "Pancreas activity, gamma well counting", "setting": "[2]; [7]", "value": "0.75 and 0.76 and 1.1"},
      {"measurement": "Fat activity, gamma well counting", "setting": "[2]; [8]", "value": "<BKG"},
      {"measurement": "Heart activity, gamma well counting", "setting": "[2]; [8]", "value": "0.54 and 0.50"},
      {"measurement": "Muscle activity, gamma well counting", "setting": "[2]; [8]", "value": "<BKG"},
      {"measurement": "activity in the urine by gamma well counting", "setting": "[2]; oral, mice not flushed with non-labeled methylcobalamin-b-(4-aminobutyl)amide-DTPA", "value": "no discernable activity was detected"},
      {"measurement": "radioactivity in urine", "setting": "[2]; oral, mice that underwent the modified Schillings test (flushed)", "value": "detectable radioactivity within their urine at one hour"}
    ]}
  ]
}
